Measurements as given in patent US11225466B2, “Benzothiadiazepine compounds and their use as bile acid modulators” (Albireo AB, priority 2019, dated 2022).

Experiments:
[1] = biological target: T1, Human IBAT (Homo sapiens, UniProt Q12908); experiment: IBAT (h/m) assay: 3H-taurocholic acid uptake in human IBAT-overexpressing cells; format: cell-based; conditions: 0.25 μM 3H-taurocholic acid and 5 μM cold taurocholic acid, read-out: hIBAT IC50
T1 construct: expressed in transfected cells; kept under Puromycin selection
T1 sequence (Q12908 1-348): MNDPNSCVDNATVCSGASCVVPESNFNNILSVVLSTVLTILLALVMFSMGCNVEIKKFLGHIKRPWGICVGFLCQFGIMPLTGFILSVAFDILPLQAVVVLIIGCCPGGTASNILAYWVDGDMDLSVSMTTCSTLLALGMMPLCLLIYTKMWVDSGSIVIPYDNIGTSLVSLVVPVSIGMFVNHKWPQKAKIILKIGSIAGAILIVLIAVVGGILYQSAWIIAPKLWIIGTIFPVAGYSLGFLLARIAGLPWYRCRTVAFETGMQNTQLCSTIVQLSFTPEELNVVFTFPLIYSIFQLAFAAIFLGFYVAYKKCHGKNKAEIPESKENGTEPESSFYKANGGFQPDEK
Procedure: IBAT (h/m) Assay Protocol
(§1) 10,000 cells (Human or Mouse IBAT-overexpressing cells) were seeded in 96-wells plate (Corning CLS3809) in 200 μL MEM-alpha medium (Gibco 12571-063) supplemented with 10% FBS (Gibco 10438026) containing Puromycin (Gibco A1113803) (10 μg/mL) and incubated at 37° C. in 5% CO2 for 48 hours. After incubation, media was decanted from the wells and cells were washed two times with 300 μL of basal MEM-alpha medium (FBS-free). After decanting basal MEM-alpha medium each time, plates were tapped against paper towel to ensure maximum removal of residual media.
Test inhibitor dilutions (highest test concentration being 10 μM, 3-fold serial dilution, 10 points) prepared in DMSO (Sigma D2650) were added in incubation mix (maintaining 0.2% final DMSO concentration) containing 0.25 μM 3H-taurocholic acid (ARC ART-1368) and 5 μM of cold taurocholic acid (Sigma T4009). 50 μL of incubation mix containing test inhibitors was then added to the wells (in duplicate) and the plates were incubated for 20 minutes in a CO2 incubator at 37° C. After incubation, the reaction was stopped by keeping the plates on ice water mix for 2-3 minutes and then the incubation mix was aspirated completely from the wells. The wells were washed two times with 250 μL of chilled unlabeled 1 mM taurocholic acid dissolved in HEPES (Gibco 15630080)-buffered (10 mM) HBSS (Gibco 14175079) (pH 7.4). The plates were tapped against a paper towel after every wash to ensure maximum removal of blocking buffer.
(§2) 100 μL of MicroScint-20 (PerkinElmer 6013621) was added to the wells and kept overnight at room temperature before reading the plates in TopCount NXT™ Microplate Scintillation and Luminescence Counter from PerkinElmer under 3H Test protocol (set at 120 seconds reading time per well).
All test compounds were provided in powder form at room temperature. 10 mM DMSO stocks of the test compounds were prepared, aliquoted and stored at −20° C. From the 10 mM DMSO stock of the compounds, a 3-fold serial dilution in DMSO was prepared to get a total of 10 dilutions of the test compounds. […]

[2] = biological target: T2, Human LBAT (Homo sapiens, UniProt Q14973); experiment: LBAT (h/m) assay: 3H-taurocholic acid uptake in human LBAT-overexpressing cells; format: cell-based; conditions: 0.3 μM 3H-taurocholic acid and 7.5 μM cold taurocholic acid, read-out: hLBAT IC50
T2 sequence (Q14973 1-349): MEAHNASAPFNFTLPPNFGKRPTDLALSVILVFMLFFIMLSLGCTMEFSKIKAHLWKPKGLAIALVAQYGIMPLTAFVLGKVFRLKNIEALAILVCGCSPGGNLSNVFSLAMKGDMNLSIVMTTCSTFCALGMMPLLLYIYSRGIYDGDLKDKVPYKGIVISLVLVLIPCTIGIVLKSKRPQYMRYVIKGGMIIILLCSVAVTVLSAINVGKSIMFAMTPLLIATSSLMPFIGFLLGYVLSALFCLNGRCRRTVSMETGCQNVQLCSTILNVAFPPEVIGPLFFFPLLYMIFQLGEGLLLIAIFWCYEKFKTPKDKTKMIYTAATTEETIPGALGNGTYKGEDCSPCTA
Procedure: LBAT (h/m) Assay Protocol
as §1, with “20,000” for “10,000”, “LBAT-overexpressing” for “IBAT-overexpressing”, “100” for “200”, “Geneticin” for “Puromycin”, “10131-027) (1 mg/mL)” for “A1113803) (10 μg/mL)”, “24” for “48”
For human LBAT, incubation mix was prepared by adding test inhibitor dilutions (3-fold serial dilution in DMSO (Sigma D2650), 10 points) in MEM-alpha (without FBS) containing 0.3 μM 3H-taurocholic acid (ARC ART-1368) and 7.5 μM cold taurocholic acid (Sigma T4009) (maintaining 0.2% final DMSO concentration). […]
as §2, with “well, with normal plate orientation). […]” for “well).”

[3] = Bidirectional permeability assay (Caco-2 cells); format: in vitro ADME; conditions: human, Caco-2, pH 7.4, 120 minutes at 37° C., FaSSIF buffer; for Papp A→B at 120 min, 10 µM: absorptive direction (A2B); for Papp B→A at 120 min, 10 µM: secretory direction (B2A)
Excerpt: Bidirectional Permeability Assay (Caco-2 Cells)

IC50 [1] [nM] | IC50 [2] [nM] | Papp A→B at 120 min, 10 µM [3] [×10⁻⁶ cm/s] | Papp B→A at 120 min, 10 µM [3] [×10⁻⁶ cm/s] | SMILES
5.7 | 3980 | 2.52 | 4 | CCCC[C@@]1(CC)CN(c2ccccc2)c2cc(SC)c(OCC(=O)O)cc2S(=O)(=O)N1 (single isomer, unassigned) [Example 2]
182 | 5000 | – | – | CCCC[C@]1(CC)CN(c2ccccc2)c2cc(SC)c(OCC(=O)O)cc2S(=O)(=O)N1 (single isomer, unassigned) [Example 3]
8.8 | – | 1.1 | 2.9 | CCCCC1(CC)CN(c2ccccc2)c2cc(SC)c(OCC(=O)O)cc2S(=O)(=O)N1 (stereo not drawn) [Example 1, 2-((3-butyl-3-ethyl-7-(methylthio)-1,1-dioxido-5-phenyl-2,3,4,5-tetrahydrobenzo-1,2,5-thiadiazepin-8-yl)oxy)acetic Acid]
